PMC3434127, “Insights into Phosphate Cooperativity and Influence of Substrate Modifications on Binding and Catalysis of Hexameric Purine Nucleoside Phosphorylases” (PLoS ONE, 2012)

Molecular target: T1, BsPNP233 (Bacillus subtilis, UniProt O34925)
T1 construct: gene deoD; full length, 233 residues, N-terminal His-tag kept (eight tag residues seen in one crystal form), recombinant from E. coli, homohexamer (D3); active site at dimer interface
T1 sequence (O34925 1-233): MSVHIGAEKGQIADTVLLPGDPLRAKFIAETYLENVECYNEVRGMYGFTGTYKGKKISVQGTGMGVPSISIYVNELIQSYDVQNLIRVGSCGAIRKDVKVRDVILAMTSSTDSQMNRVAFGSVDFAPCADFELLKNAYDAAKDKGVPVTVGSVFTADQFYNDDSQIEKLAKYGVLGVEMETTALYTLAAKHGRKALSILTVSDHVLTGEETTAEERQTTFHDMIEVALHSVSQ
Assay: X-ray crystal structure (soaked crystal)
Format: binding

[1] = crystals grown in 0.1 M sodium acetate pH 4.6, 3.2 M NaCl, 5% glycerol, 291 K, nucleoside site

Compound	X-ray crystal structure (soaked crystal) [1]	also measured
Nc1nc2c(ncn2COCCO)c(=O)[nH]1 [ACV, aciclovir]		X-ray crystal structure (soaked crystal) (crystals grown in 0.1 M sodium acetate pH 4.6, 3.2 M NaCl, 5% glycerol, 291 K, nucleoside site, two conformations of the acyclic chain, half-occupancy phosphate modelled): Aciclovir binds to the BsPNP233 nucleoside binding site
Nc1ncnc2[nH]cnc12 [Ade, adenine]		X-ray crystal structure (soaked crystal) (purine-binding site, solved without (4DAO) and with sulfate (form I, 4D8V)): The BsPNP233-Ade binary complex was solved with (BsPNP233-Ade-SO4) or without (BsPNP233-Ade) sulfate ion
Nc1ncnc2c1ncn2[C@@H]1O[C@H](CO)[C@@H](O)[C@H]1O [Ado, adenosine]	The base moiety of adenosine (Ado) binds to the BsPNP233 active site	
Nc1nc2c(nc(Br)n2[C@@H]2O[C@H](CO)[C@@H](O)[C@H]2O)c(=O)[nH]1 [Br-Guo, 8-bromoguanosine]	The ribosyl moiety of Br-Guo presents a typical C4′–endo conformation and binds to the active site	
Nc1nc(Cl)c2ncn([C@@H]3O[C@H](CO)[C@@H](O)[C@H]3O)c2n1 [Cl-Guo, 6-chloroguanosine]	The molecule Cl-Guo displays a similar binding mode to that observed for dGuo	
Nc1nc(F)nc2c1ncn2[C@@H]1O[C@H](CO)[C@@H](O)[C@H]1O [F-Ado, 2-fluoradenosine]	The crystal structure of BsPNP233-(F-Ado) complex had two BsPNP233 subunits per asymmetric unit	
Nc1nc2c(ncn2COC(CO)CO)c(=O)[nH]1 [GCV, ganciclovir]	GCV binds to the nucleoside binding site of BsPNP233	
O=c1[nH]cnc2nc[nH]c12 [Hyp, hypoxanthine]		X-ray crystal structure (soaked crystal) (crystals grown in 0.1 M sodium acetate pH 4.6, 3.2 M NaCl, 5% glycerol, 291 K, purine-binding site, glycerol in ribose site): crystal structures of BsPNP233 in complex with hypoxanthine (Hyp) and adenine (Ade)
Nc1ncnc2c1ccn2[C@@H]1O[C@H](CO)[C@@H](O)[C@H]1O [TBN, tubercidin]	TBN presented an interaction mode very similar to that seen for the natural substrate adenosine	
